Reference: patent US12655116B2, “Substituted isophthalic acid diamides” (Bayer Aktiengesellschaft, priority 2020, dated 2026)

Experiments:
[1] = test system: SETVI; experiment: Pre-emergence herbicidal action against SETVI; assay type: in vivo, Setaria viridis
How it was run: (§1)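 Herbicidal effect was assessed 3 weeks after treatment by visual comparison with untreated controls, 100% denoting dead plants. Aqueous WP or EC preparations had been applied at 600 to 800 l/ha with 0.2% wetting agent to the soil covering freshly sown seeds.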

[2] = test system: AMARE; experiment: Pre-emergence herbicidal action against AMARE; assay type: in vivo, Amaranthus retroflexus
How it was run: as §1

[3] = test system: ECHCG; experiment: Pre-emergence herbicidal action against ECHCG; assay type: in vivo, Echinochloa crus-galli
How it was run: as §1

[4] = test system: VIOTR; experiment: Pre-emergence herbicidal action against VIOTR; assay type: in vivo, Viola tricolor
How it was run: as §1

[5] = test system: AVEFA; experiment: Post-emergence herbicidal action against AVEFA; assay type: in vivo, Avena fatua; settings: 20 g/ha, visual assessment about 3 weeks after treatment, 100% = plants have died, 0% = like control plants
Procedure: Seeds of monocotyledonous and dicotyledonous weed and crop plants are laid out in sandy loam soil in wood-fiber pots, covered with soil and cultivated in a greenhouse under good growth conditions. 2 to 3 weeks after sowing, the test plants are treated at the one-leaf stage. The compounds of the invention, formulated in the form of wettable powders (WP) or as emulsion concentrates (EC), are then sprayed onto the green parts of the plants in the form of an aqueous suspension or emulsion at a water application rate equivalent to 600 to 800 l/ha, with addition of 0.2% wetting agent. After the test plants have been left to stand in the greenhouse under optimal growth conditions for about 3 weeks, the action of the preparations is assessed visually in comparison to untreated controls (herbicidal action in percent (%): 100% activity=the plants have died, 0% activity=like control plants). […] The tables below illustrate, in an illustrative manner, the post-emergence herbicidal action of the compounds of the invention, the herbicidal activity being stated in percent.

[6] = test system: DIGSA; experiment: Pre-emergence herbicidal action against DIGSA; assay type: in vivo, Digitaria sanguinalis
How it was run: as §1

[7] = test system: AVEFA; experiment: Pre-emergence herbicidal action against AVEFA; assay type: in vivo, Avena fatua; settings: 80 g/ha, pre-emergence
How it was run: as §1

[8] = test system: PHBPU; experiment: Pre-emergence herbicidal action against PHBPU; assay type: in vivo, Pharbitis purpurea
How it was run: as §1

[9] = test system: MATIN; experiment: Pre-emergence herbicidal action against MATIN; assay type: in vivo, Matricaria inodora
How it was run: as §1

[10] = test system: PHBPU; experiment: Post-emergence herbicidal action against PHBPU; assay type: in vivo, Pharbitis purpurea
How it was run: (§2)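 Herbicidal effect was scored visually in percent after about 3 weeks in the greenhouse. Plants had been raised in sandy loam and treated post-emergence at the one-leaf stage with formulated compound at 600 to 800 l/ha water plus 0.2% wetting agent.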

[11] = test system: ALOMY; experiment: Post-emergence herbicidal action against ALOMY; assay type: in vivo, Alopecurus myosuroides; settings: dosage 20 g/ha, visual assessment about 3 weeks after treatment vs untreated controls
How it was run: as §2

[12] = test system: ECHCG; experiment: Post-emergence herbicidal action against ECHCG; assay type: in vivo, Echinochloa crus-galli
How it was run: as §2

[13] = test system: ALOMY; experiment: Pre-emergence herbicidal action against ALOMY; assay type: in vivo, Alopecurus myosuroides; settings: 80 g/ha, pre-emergence, scored visually after 3 weeks vs untreated controls (100% = plants have died, 0% = like control plants)
How it was run: as §1

[14] = test system: ABUTH; experiment: Pre-emergence herbicidal action against ABUTH; assay type: in vivo, Abutilon theophrasti; settings: for Pre-emergence action against ABUTH (herbicidal activity): 80 g/ha, scored visually after 3 weeks vs untreated controls (100% = plants have died, 0% = like control plants); for Pre-emergence action against ABUTH (herbicidal activity in percent): dosage 20 g/ha, scored visually after 3 weeks vs untreated controls, 100% = plants have died, 0% = like control plants
How it was run: as §1

[15] = test system: ABUTH; experiment: Post-emergence herbicidal action against ABUTH; assay type: in vivo, Abutilon theophrasti; settings: visual assessment about 3 weeks after treatment vs untreated controls
How it was run: as §2

[16] = test system: VERPE; experiment: Pre-emergence herbicidal action against VERPE; assay type: in vivo, Veronica persica; settings: dosage 80 g/ha
How it was run: as §1

[17] = test system: VERPE; experiment: Post-emergence herbicidal action against VERPE; assay type: in vivo, Veronica persica; settings: 20 g/ha
How it was run: as §2

[18] = test system: VIOTR; experiment: Post-emergence herbicidal action against VIOTR; assay type: in vivo, Viola tricolor
How it was run: as §2

[19] = test system: SETVI; experiment: Post-emergence herbicidal action against SETVI; assay type: in vivo, Setaria viridis
How it was run: as §2

[20] = test system: AMARE; experiment: Post-emergence herbicidal action against AMARE; assay type: in vivo, Amaranthus retroflexus; settings: 20 g/ha, visual assessment about 3 weeks after treatment, 100% = plants have died, 0% = like control plants
How it was run: as §2

[21] = test system: MATIN; experiment: Post-emergence herbicidal action against MATIN; assay type: in vivo, Matricaria inodora
How it was run: as §2

[22] = 20 g/ha, scored visually after 3 weeks vs untreated controls, 100% = plants have died, 0% = like control plants
[23] = 80 g/ha, scored visually after 3 weeks vs untreated controls (100% = plants have died, 0% = like control plants)

Compound | Pre-emergence action against SETVI in % ([1]; dosage 80 g/ha) | Pre-emergence action against AMARE in % [2, 22] | Pre-emergence action against AMARE in % [2, 23] | Pre-emergence action against ECHCG in % ([3]; 80 g/ha) | Pre-emergence action against VIOTR in % ([4]; dosage 20 g/ha) | Pre-emergence action against VIOTR in % ([4]; dosage 80 g/ha) | Post-emergence action at 20 g/ha against AVEFA in % [5] | Pre-emergence action against DIGSA in % ([6]; dosage 20 g/ha) | Pre-emergence action against DIGSA in % ([6]; dosage 80 g/ha) | Pre-emergence action against AVEFA in % [7] | Pre-emergence action against PHBPU in % ([8]; dosage 80 g/ha) | Pre-emergence action against MATIN in % ([9]; dosage 20 g/ha) | Pre-emergence action against MATIN in % ([9]; dosage 80 g/ha) | Post-emergence action against PHBPU in % ([10]; dosage 20 g/ha) | Post-emergence action against ECHCG in % ([12]; dosage 20 g/ha) | Pre-emergence action against ALOMY (herbicidal activity) [13] | Pre-emergence action against ABUTH (herbicidal activity) [14] | Pre-emergence action against ABUTH (herbicidal activity in percent) [14] | Post-emergence action against ABUTH in % ([15]; dosage 5 g/ha) | Post-emergence action against ABUTH in % ([15]; dosage 20 g/ha) | further results
Cc1c(C(=O)Nc2nnnn2C)ccc(C(F)(F)F)c1C(=O)NCC(F)F [Example 1-30] | 100% | 100% | 100% | 80% | 100% | 100% | 80% | 100% | 100% | 100% | 100% | 100% | 100% | 80% | 80% | 80% | 100% | 100% | 80% | 80% | Pre-emergence action against SETVI in % ([1]; dosage 20 g/ha): 90%; Post-emergence action against ALOMY in % [11]: 80%
Cc1c(C(=O)Nc2nnnn2C)ccc(C(F)(F)F)c1C(=O)NC(C)C1CC1 (stereo not shown) [Example 1-31] | 100% | 100% | 100% | 100% | 100% | 100% | 90% | 100% | 100% | 90% | 80% | 100% | 100% | 80% | 80% | 90% | 100% | 100% | 80% | 80% | Pre-emergence action against VERPE in % [16]: 100%; Pre-emergence action against ECHCG in % ([3]; 20 g/ha): 90%; Post-emergence action against VERPE in % [17]: 80%; Post-emergence action against ECHCG in % ([12]; dosage 5 g/ha): 80%
CCn1nnnc1NC(=O)c1ccc(C(F)(F)F)c(C(=O)NCC(F)F)c1SC [Example 2-86] | 100% | 100% | 100% | 100% |  | 100% | 80% |  |  | 90% | 90% | 100% | 100% | 90% | 100% | 90% | 100% | 100% | 80% | 100% | Pre-emergence action against VERPE in % [16]: 90%; Post-emergence action against VIOTR in % ([18]; 5 g/ha): 100%; Post-emergence action against VIOTR in % ([18]; 20 g/ha): 100%; Pre-emergence action against ECHCG in % ([3]; 20 g/ha): 80%; Post-emergence action against SETVI in % ([19]; dosage 5 g/ha): 100%; Post-emergence action against SETVI in % ([19]; dosage 20 g/ha): 100%; Pre-emergence action against PHBPU in % ([8]; dosage 20 g/ha): 80%; Post-emergence action at 20 g/ha against AMARE in % [20]: 100%; Post-emergence action against PHBPU in % ([10]; dosage 5 g/ha): 80%; Post-emergence action against ALOMY in % [11]: 80%; Post-emergence action against ECHCG in % ([12]; dosage 5 g/ha): 100%; Post-emergence action against MATIN in % ([21]; dosage 5 g/ha): 80%; Post-emergence action against MATIN in % ([21]; dosage 20 g/ha): 90%
